Measured values from ChEMBL document CHEMBL3044583, “Mechanisms and Issues Relating to the Use of D1-like Dopamine Receptor Agonists for Age-related Illnesses: Parkinson?s Disease and Memory and Cognition” (Med Chem Res, 2004).

Legend:
[1] = target: D(1A) dopamine receptor (Homo sapiens) (UniProt P21728); assay: Binding affinity to dopamine D1 receptor (unknown origin)
[2] = target: D(1A) dopamine receptor (Rattus norvegicus) (UniProt P18901)
Description: Binding affinity to dopamine D1 receptor in Rattus norvegicus (rat) brain

[3] = Half life in Rattus norvegicus (rat) plasma; assay type: ADME, cell-free

D(1A) dopamine receptor (Homo sapiens), sequence (P21728 whole entry): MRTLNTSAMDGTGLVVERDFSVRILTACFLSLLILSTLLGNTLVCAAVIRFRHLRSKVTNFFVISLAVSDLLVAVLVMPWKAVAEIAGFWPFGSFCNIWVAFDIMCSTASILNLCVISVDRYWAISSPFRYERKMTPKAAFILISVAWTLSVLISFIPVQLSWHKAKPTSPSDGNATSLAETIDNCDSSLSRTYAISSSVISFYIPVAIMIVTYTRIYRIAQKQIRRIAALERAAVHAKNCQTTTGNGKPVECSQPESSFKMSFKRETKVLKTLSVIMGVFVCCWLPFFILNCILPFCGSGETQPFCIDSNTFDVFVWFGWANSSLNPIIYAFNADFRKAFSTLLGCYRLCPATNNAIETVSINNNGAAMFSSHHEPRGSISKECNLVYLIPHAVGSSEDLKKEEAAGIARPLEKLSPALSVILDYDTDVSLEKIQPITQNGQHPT
D(1A) dopamine receptor (Rattus norvegicus), sequence (P18901 whole entry): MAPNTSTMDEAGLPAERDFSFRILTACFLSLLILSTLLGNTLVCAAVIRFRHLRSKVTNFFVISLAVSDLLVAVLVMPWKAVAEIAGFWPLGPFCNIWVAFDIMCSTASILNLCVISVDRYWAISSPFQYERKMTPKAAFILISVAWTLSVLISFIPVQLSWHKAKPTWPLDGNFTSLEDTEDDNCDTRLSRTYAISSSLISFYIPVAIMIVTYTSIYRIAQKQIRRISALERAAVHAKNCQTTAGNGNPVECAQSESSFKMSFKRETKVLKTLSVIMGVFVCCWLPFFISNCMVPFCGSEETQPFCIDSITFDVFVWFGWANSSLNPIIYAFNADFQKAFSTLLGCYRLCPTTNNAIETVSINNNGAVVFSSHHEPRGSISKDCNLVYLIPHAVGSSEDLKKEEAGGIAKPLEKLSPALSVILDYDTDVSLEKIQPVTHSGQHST

In the case of NC[C@@H]1O[C@H](C23CC4CC(CC(C4)C2)C3)Cc2c1ccc(O)c2O, the K0.5 [1] is reported as 1 nM.

In the case of Oc1cc2c(cc1O)[C@H]1c3ccccc3CN[C@@H]1CC2, the K0.5 [2] is reported as 5 nM.

Compound CCCc1cc2c(s1)CN[C@@H]1CCc3cc(O)c(O)cc3[C@@H]21 (relative stereo) has a K0.5 [1] of 1 nM.

NC[C@@H]1O[C@H](c2ccccc2)Cc2c1ccc(O)c2O (relative stereo) gave a K0.5 [1] of 1 nM.

CCCc1cc2c(s1)CN[C@@H]1CCc3cc(OC(C)=O)c(OC(C)=O)cc3[C@@H]21.Cl (relative stereo) [ADROGOLIDE HYDROCHLORIDE] showed a half-life [3] of 1 min.
